Data: the supplement of paper PMC8967900

Columns and labels:
Experiment in all cases: selective drug sensitivity score (sDSS, relative to normal bone marrow) (sDSS (score)); higher = more potent and effective on the cell line relative to normal bone marrow cells
Conditions in all cases: 72 h
PF-382 = tested on: PF-382
HPB-ALL = tested on: HPB-ALL
NALM-6 = tested on: NALM-6
HAL-01 = tested on: HAL-01
CCRF-HSB2 = tested on: CCRF-HSB2
KASUMI-9 = tested on: KASUMI-9
RPMI-8402 = tested on: RPMI-8402
JURKAT = tested on: JURKAT
697 = tested on: 697
COG-LL-317 = tested on: COG-LL-317
KARPAS-45 = tested on: KARPAS-45
LC4-1 = tested on: LC4-1
NALM-16 = tested on: NALM-16
MOLT-4 = tested on: MOLT-4
DND-41 = tested on: DND-41
KASUMI-2 = tested on: KASUMI-2
ALL-PO = tested on: ALL-PO
NALL-1 = tested on: NALL-1
SUP-B15 = tested on: SUP-B15
COG-LL-402h = tested on: COG-LL-402h
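Note: ALL cell lines in 384-well plates, five doses spanning 10,000-fold, each plate scaled between vehicle and 100 µmol/L benzalkonium chloride controls, sDSS an adapted area-under-curve metric.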

Compound	selective drug sensitivity score (PF-382)	selective drug sensitivity score (HPB-ALL)	selective drug sensitivity score (NALM-6)	selective drug sensitivity score (HAL-01)	selective drug sensitivity score (CCRF-HSB2)	selective drug sensitivity score (KASUMI-9)	selective drug sensitivity score (RPMI-8402)	selective drug sensitivity score (JURKAT)	selective drug sensitivity score 697	selective drug sensitivity score (COG-LL-317)	selective drug sensitivity score (KARPAS-45)	selective drug sensitivity score (LC4-1)	selective drug sensitivity score (NALM-16)	selective drug sensitivity score (MOLT-4)	selective drug sensitivity score (DND-41)	selective drug sensitivity score (KASUMI-2)	selective drug sensitivity score (ALL-PO)	selective drug sensitivity score (NALL-1)	selective drug sensitivity score (SUP-B15)	selective drug sensitivity score (COG-LL-402h)
COC12C(COC(N)=O)C3=C(C(=O)C(C)=C(N)C3=O)N1CC1NC12 (stereo in doubt) [Mitomycin_C] (top concentration 10000 nM)	-2.86	-1.16	-2.86	0.74	-2.86	4.04	-2.86	-2.86	2.34	-2.66	-2.86	2.34	-2.86	-2.86	-2.86	4.24	-0.76	-2.86	1.24	-2.86
Cc1c(-c2c(-c3ccc(F)o3)sc3ncnc(O[C@H](Cc4ccccc4OCc4ccnn4CC(F)(F)F)C(=O)O)c23)ccc(OCCN2CCN(C)CC2)c1Cl (top concentration 1000 nM)	-7.74	-2.44	-3.44	-7.74	-5.14	-1.84	-4.54	-6.44	-0.84	-2.84	-0.24	-0.54	-4.64	-2.84	-7.74	-4.34	-7.74	-7.74	6.36	6.06
Cc1ncc(Cl)cc1NCc1ccc(C(=O)N[C@@H](CC2CCCC2)C(=O)NC2CC2)s1 (top concentration 5000 nM)	-0.94	1.36	-0.94	1.16	0.66	-0.84	-0.94	0.76	-0.94	18.9	-0.94	-0.94	1.06	3.26	-0.94	4.56	-0.94	-0.94	3.46	13.1
CCn1c(-c2nonc2N)nc2c(C#CC(C)(C)O)ncc(OC[C@H]3CCCNC3)c21 (top concentration 10000 nM)	4.48	3.98	8.78	-0.62	0.88	0.98	6.48	7.48	8.28	14.8	6.28	1.08	2.68	8.68	-1.12	6.38	8.18	-0.32	-0.32	8.28
CN(c1ncccc1CNc1nc(Nc2ccc3c(c2)CC(=O)N3)ncc1C(F)(F)F)S(C)(=O)=O (top concentration 10000 nM)	-0.78	-1.18	5.22	-0.18	1.42	0.12	1.52	1.52	2.62	-1.28	2.72	3.82	0.42	1.02	0.62	-0.38	6.62	2.42	4.62	2.42
CNc1ncc2cc(-c3cc(NC(=O)NCCC(C)(C)C)c(F)cc3C)c(C)nc2n1 (top concentration 10000 nM)	9.66	2.46	6.66	4.66	20.2	9.16	0.66	2.56	10.5	-0.24	5.26	7.86	1.76	6.26	8.06	0.36	4.86	4.96	16.1	6.76
C[C@@]1(C(=O)Nc2ccc(F)nc2)CCCN1c1nc(Nc2cc(C3CC3)n[nH]2)c2cccn2n1 (top concentration 10000 nM)	6.18	8.28	4.08	2.58	12.1	8.08	5.58	-2.62	11.8	12.5	6.18	11.4	2.88	8.68	-5.02	-6.52	13	8.98	8.98	8.18
Cc1nc(Nc2n[nH]c3c2CN(C(=O)N[C@H](CN(C)C)c2ccccc2)C3(C)C)c2sccc2n1 (top concentration 10000 nM)	1.98	-1.72	1.18	-10.5	11.1	11.6	6.38	0.68	16.4	18.6	9.48	3.98	2.58	-1.22	0.98	3.28	5.58	-7.42	12.8	6.18
Cn1cc(-c2[nH]c3cc(NC(=O)[C@H](N)C4CCCCC4)cc4c3c2C=NNC4=O)cn1 (top concentration 10000 nM)	4.48	9.68	6.28	-6.52	6.98	7.88	9.68	3.48	9.38	6.08	6.78	7.58	3.98	3.38	10.3	-6.12	9.28	4.58	6.58	7.08
